Experimental data: patent US7595330B2, “Benzimidazole thiophene compounds” (SmithKline Beecham Corporation, priority 2005, dated 2009)
pIC50: −log10 of the molar value.

How the values were obtained:
[1] = test system: PANC-1; assay: Cell-Titer-Glo inhibition of cell proliferation, PANC-1; assay type: cell-based; conditions: Homo sapiens, CellTiter-Glo, 72 h
Experimental: (§1) V. Cell-Titer-Glo—Inhibition of Cell Proliferation by PLK1 Inhibitors
(§2) Exponentially growing cell lines of different tumor origins, cultured in appropriate media containing 10% fetal bovine serum at 37° C. in a 5% CO2 incubator were plated at low density (less than 2000 cells/well) in 96-well plates. Twenty four hours post-plating, cells were treated with different concentrations of test compounds ranging from 10 uM to 0.04 nM. Several wells were left untreated as a control. Seventy two hours post-treatment, cell numbers were determined using 50-100 ul per well of CellTiter-Glo (Promega #G7573). Plates were incubated at room temperature for 15 minutes and the chemiluminescent signal was read on the Victor V or Envison 2100 reader.
(§3) The Cell-Titer Glo data are shown in Table 2 below and represent a compilation of several different experiments, each performed using the general parameters outlined above, although minor variations may have been employed in some instances.

[2] = test system: H460; assay: Methylene blue growth inhibition assay, H460; assay type: cell-based; conditions: Homo sapiens, NCI-H460; methylene blue, 72 h, H460; read-out: H460 IC50
Experimental: (§4) II. Methylene Blue Growth Inhibition Assay—Inhibition of Cell Proliferation by PLK1 Inhibitors
(§5) Generally, exponentially growing cell lines of different tumor origins, cultured in appropriate media containing 10% fetal bovine serum at 37° C. in a 5% CO2 incubator were plated at low density (less than 2000 cells/well) in 96-well plates. […]. Seventy two hours post-treatment, cell numbers were determined using 100 μl per well of methylene blue (Sigma M9140) (0.5% in 50:50 Ethanol:water). Stain was incubated at room temperature for 30 minutes before plates were rinsed and dye solubilized in 1% N-lauroyl sarcosine, sodium salt, (Sigma L5125, in PBS) (further details of a methylene blue assay are described below). Plates were read on a microplate reader, measuring the OD at 620 nm.
(§6) . The data are shown in Table 1 below and represent a compilation of several different experiments, each performed using the general parameters outlined above, although minor variations may have been employed in some instances.
(§7) In one assay, normal human foreskin fibroblasts (HFF), human colon (HCT116, RKO), lung (H460, A549) and breast (MCF7) tumor cell lines were cultured in high glucose DMEM (Life Technologies) containing 10% fetal bovine serum (FBS) at 37° C. in a humidified 5% CO2, 95% air incubator. Cells were harvested using trypsin/EDTA, counted using a haemocytometer, and plated in 100 μL of culture media per well, at the following densities, in a 96-well tissue culture plate (Falcon 3075): HFF 5,000 cells/well, HCT116 3,000 cells/well, RKO 2,500 cells/well, H460 2,500 cells/well, A549 5,000 cells/well, MCF7 4,000 cells/well. The next day, compounds were diluted in low glucose DMEM containing 100 μg/mL gentamicin, at twice the final required concentration, from 10 mM stock solutions in DMSO. 100 μL/well of these dilutions were added to the 100 μL of media currently in the assay plates. Medium containing 0.6% DMSO was added to control wells. The final concentration of DMSO in all wells was 0.3%. Cells were incubated at 37° C., 5% CO2 for 72 h. Medium was removed by aspiration. Cell biomass was estimated by staining cells with 80 μL per well methylene blue (Sigma M9140, 0.5% in 50:50 ethanol:water), and incubation at room temperature for 30-60 min. Stain was removed by aspiration and the plates rinsed by immersion in water, then air-dried. To release stain from the cells, 100 μL of solubilization solution was added (1% N-lauroyl sarcosine, Sodium salt, Sigma L5125, in PBS), and plates were shaken gently for about 30 min. Optical density at 620 nm was measured on a microplate reader. Percent inhibition of cell growth was calculated relative to vehicle treated control wells. […].

[3] = test system: MCF7; assay: Methylene blue growth inhibition assay, MCF7; assay type: cell-based; conditions: Homo sapiens; methylene blue, 72 h, MCF7; read-out: MCF7 IC50
Experimental: as §4, §5, §6, §7

[4] = test system: HT29; assay: Cell-Titer-Glo inhibition of cell proliferation, HT29; assay type: cell-based; conditions: Homo sapiens, HT-29, CellTiter-Glo, 72 h
Experimental: as §1, §2, §3

[5] = test system: A549; assay: Methylene blue growth inhibition assay, A549; assay type: cell-based; conditions: Homo sapiens; methylene blue, 72 h, A549; read-out: A549 IC50
Experimental: as §4, §5, §6, §7

[6] = test system: H1299; assay: Cell-Titer-Glo inhibition of cell proliferation, H1299; assay type: cell-based; conditions: Homo sapiens, NCI-H1299, CellTiter-Glo, 72 h
Experimental: as §1, §2, §3

[7] = test system: HCT116; assay: Cell-Titer-Glo inhibition of cell proliferation, HCT116; assay type: cell-based; conditions: Homo sapiens, HCT-116, CellTiter-Glo, 72 h
Experimental: as §1, §2, §3

[8] = test system: A549-L; assay: Cell-Titer-Glo inhibition of cell proliferation, A549-L; assay type: cell-based; conditions: CellTiter-Glo, 72 h
Experimental: as §1, §2, §3

[9] = test system: LNCaP; assay: Cell-Titer-Glo inhibition of cell proliferation, LNCaP; assay type: cell-based; conditions: Homo sapiens, CellTiter-Glo, 72 h
Experimental: as §1, §2, §3

[10] = test system: Hela; assay: Cell-Titer-Glo inhibition of cell proliferation, Hela; assay type: cell-based; conditions: Homo sapiens, CellTiter-Glo, 72 h
Experimental: as §1, §2, §3

[11] = test system: SKOV-3; assay: Cell-Titer-Glo inhibition of cell proliferation, SKOV-3; assay type: cell-based; conditions: Homo sapiens, SK-OV-3, CellTiter-Glo, 72 h
Experimental: as §1, §2, §3

[12] = test system: P388; assay: Cell-Titer-Glo inhibition of cell proliferation, P388; assay type: cell-based; conditions: Mus musculus, CellTiter-Glo, 72 h
Experimental: as §1, §2, §3

[13] = test system: ASPC3; assay: Cell-Titer-Glo inhibition of cell proliferation, ASPC3; assay type: cell-based; conditions: CellTiter-Glo, 72 h
Experimental: as §1, §2, §3

[14] = test system: MX-1; assay: Cell-Titer-Glo inhibition of cell proliferation, MX-1; assay type: cell-based; conditions: Homo sapiens, MX1, CellTiter-Glo, 72 h
Experimental: as §1, §2, §3

[15] = test system: MV522; assay: Cell-Titer-Glo inhibition of cell proliferation, MV522; assay type: cell-based; conditions: CellTiter-Glo, 72 h
Experimental: as §1, §2, §3

[16] = test system: BXPC3; assay: Cell-Titer-Glo inhibition of cell proliferation, BXPC3; assay type: cell-based; conditions: Homo sapiens, BXPC-3, CellTiter-Glo, 72 h
Experimental: as §1, §2, §3

[17] = test system: HN5; assay: Cell-Titer-Glo inhibition of cell proliferation, HN5; assay type: cell-based; conditions: Homo sapiens, CellTiter-Glo, 72 h
Experimental: as §1, §2, §3

[18] = test system: MiaPaca; assay: Cell-Titer-Glo inhibition of cell proliferation, MiaPaca; assay type: cell-based; conditions: Homo sapiens, MIA PaCa-2, CellTiter-Glo, 72 h
Experimental: as §1, §2, §3

[19] = High throughput solubility assay; assay type: physicochemical; conditions: aqueous buffer, pH 7.4, 0.05M phosphate buffer
Experimental: IV. High Throughput Solubility Assay
Two samples are prepared for each compound. One (the standard sample) contains the compound at a fixed concentration of 20 μM in an aqueous/organic mixed solvent cocktail. The other (the test sample) contains the compound at a maximum concentration of 200 μM in pH 7.4, 0.05M phosphate buffer and shaking for 24 h. The test sample is filtered by 0.45μ filter and then spun for 10 min to remove any undissolved solid. HPLC analyses are preformed on these samples. The peak areas are used for computing solubility.

[20] = test system: MDA-MB-468; assay: Cell-Titer-Glo inhibition of cell proliferation, MDA-MB-468; assay type: cell-based; conditions: Homo sapiens, CellTiter-Glo, 72 h
Experimental: as §1, §2, §3

- pIC50 [1]: > 6.30
- pIC50 [2]: > 7.00
- pIC50 [3]: > 7.00
- pIC50 [4]: > 6.30
- pIC50 [5]: > 7.00
- pIC50 [6]: > 6.30
- pIC50 [7]: > 6.30
- pIC50 [8]: > 6.30
- pIC50 [9]: > 6.30
- pIC50 [10]: > 6.30
- pIC50 [11]: > 6.30
- pIC50 [12]: > 6.30
- pIC50 [13]: > 6.30
- pIC50 [16]: > 6.30
- pIC50 [18]: > 6.30
- solubility at 24 h [19]: > 100 µM
- pIC50 [20]: > 6.30
SMILES: C[C@@H](Oc1cc(-n2cnc3ccc(CN4CCN(C)CC4)cc32)sc1C(N)=O)c1ccccc1C(F)(F)F [Example 3, 5-{6-[(4-Methylpipiperazin-1-yl)methyl]-1H-benzimidazol-1-yl}-3-{(1R)-1-[2-(trifluoromethyl)phenyl]ethoxy}thiophene-2-carboxamide]
- pIC50 [14]: > 6.30
- pIC50 [15]: > 6.30
- pIC50 [17]: > 6.30
